Read-outs that look alike come from different tables or passages of the source.
Tests used:
CB2 receptor = target: T1, CB2 receptor (Mus musculus, UniProt P47936); assay: CB2 receptor binding assay, [3H] CP-55,940 displacement, mouse spleen membranes
T1 construct: membranes were prepared from frozen mouse spleen; from tissue; host or cells: mouse spleen

CB1 cannabinoid receptor = target: T2, CB1 cannabinoid receptor (Rattus norvegicus, UniProt P20272); assay: CB1 receptor binding assay, [3H] CP-55,940 displacement, rat forebrain membranes
T2 construct: membranes were prepared from rat forebrain membranes; from tissue; host or cells: rat forebrain
T2 sequence (P20272 whole entry): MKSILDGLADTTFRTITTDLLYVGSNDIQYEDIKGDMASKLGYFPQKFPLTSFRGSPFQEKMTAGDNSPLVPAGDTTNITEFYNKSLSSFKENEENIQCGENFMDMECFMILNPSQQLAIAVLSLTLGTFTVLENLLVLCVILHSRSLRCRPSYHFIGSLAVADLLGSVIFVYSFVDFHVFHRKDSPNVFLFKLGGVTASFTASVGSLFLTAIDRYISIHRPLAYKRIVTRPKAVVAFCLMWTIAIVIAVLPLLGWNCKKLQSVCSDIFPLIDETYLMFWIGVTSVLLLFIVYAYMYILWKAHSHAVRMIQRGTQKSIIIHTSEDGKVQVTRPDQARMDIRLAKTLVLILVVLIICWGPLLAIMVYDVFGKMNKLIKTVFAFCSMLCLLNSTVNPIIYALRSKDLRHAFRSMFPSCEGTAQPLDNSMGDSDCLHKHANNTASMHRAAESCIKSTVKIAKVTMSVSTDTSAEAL
Description: Some inventive analogs were tested for CB2 receptor binding affinity and for CB1 receptor affinity (to determine selectivity). As used herein, “binding affinity” is represented by the IC50 value which is the concentration of an analog required to occupy the 50% of the total number (Bmax) of the receptors. The lower the IC50 value the higher the binding affinity. […] For the CB1 receptor binding studies, membranes were prepared from rat forebrain membranes according to the procedure of P. R. Dodd et al, A Rapid Method for Preparing Synaptosomes: Comparison with Alternative Procedures, Brain Res., 107-118 (1981). The binding of the novel analogues to the CB1 cannabinoid receptor was assessed as described in W. A. Devane et al, Determination and Characterization of a Cannabinoid Receptor in a Rat Brain, Mol. Pharmacol., 34, 605-613 (1988) and A. Charalambous et al, 5′-azido Δ^8- THC: A Novel Photoaffinity Label for the Cannabinoid Receptor, J. Med. Chem., 35, 3076-3079 (1992) with the following changes. The above articles are incorporated by reference herein.
Membranes, previously frozen at −80° C., were thawed on ice. To the stirred suspension was added three volumes of TME (25 mM Tris-HCl buffer, 5 mM MgCl2 and 1 mM EDTA) at a pH 7.4. The suspension was incubated at 4° C. for 30 min. At the end of the incubation, the membranes were pelleted and washed three times with TME.
The treated membranes were subsequently used in the binding assay described below. Approximately 30 μg of membranes were incubated in silanized 96-well microtiter plate with TME containing 0.1% essentially fatty acid-free bovine serum albumin (BSA), 0.8 nM [^3H] CP-55,940, and various concentrations of test materials in a final volume of 200 μL. The assays were incubated for 1 hour at 30° C. and then immediately filtered using Packard Filtermate 196 harvester and Whatman GF/C filterplates and washed with wash buffer (TME) containing 0.5% BSA. Radioactivity was detected using MicroScint 20 scintillation cocktail added directly to the dried filterplates, and the filterplates were counted using a Packard Instruments Top-Count. Nonspecific binding was assessed using 100 nM CP-55,940. Data collected from three independent experiments performed with duplicate determinations was normalized between 100% and 0% specific binding for [^3H] CP-55,940, determined using buffer and 100 nM CP-55,940. The normalized data was analyzed using a 4-parameter nonlinear logistic equation to yield IC50 values. Data from at least two independent experiments performed in duplicate was used to calculate IC50 values which were converted to Ki values using the assumptions of Cheng et al, Relationship Between the Inhibition Constant (Ki) and the concentration of Inhibitor which causes 50% Inhibition (IC50) of an Enzymatic Reaction, Biochem. Pharmacol., 22, 3099-3102, (1973), which is incorporated by reference herein.

[1] = Table 1, bicyclic-cannabinoid analogs, rat forebrain membranes, 0.8 nM [3H] CP-55,940, read-out: Ki in nM for the CB1 Receptor

T1 sequence (P47936 whole entry): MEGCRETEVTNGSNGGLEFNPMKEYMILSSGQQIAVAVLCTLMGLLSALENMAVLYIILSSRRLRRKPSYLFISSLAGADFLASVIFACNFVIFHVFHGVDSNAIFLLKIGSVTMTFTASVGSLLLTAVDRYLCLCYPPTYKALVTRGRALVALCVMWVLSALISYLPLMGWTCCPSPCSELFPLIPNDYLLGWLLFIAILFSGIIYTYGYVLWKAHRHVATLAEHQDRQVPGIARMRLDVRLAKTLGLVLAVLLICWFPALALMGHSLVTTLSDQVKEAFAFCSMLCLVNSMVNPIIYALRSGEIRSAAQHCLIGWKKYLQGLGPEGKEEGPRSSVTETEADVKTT

SMILES	Ki (CB2 receptor)	Ki (CB1 cannabinoid receptor)	melting point	Ki (CB1 cannabinoid receptor; Table 2, hexahydrocannabinol analogs, rat forebrain membranes, 0.8 nM [3H] CP-55,940, read-out: Ki in nM for the CB1 Receptor)	Ki (CB1 cannabinoid receptor; [1])
CCCCCCC1(c2cc(O)c3c(c2)OC(C)(C)[C@@H]2CCC(=O)C[C@@H]32)CCCC1 [Compound 4a, (−)-trans-3-(1′,1′-cyclopentylheptyl)-6,6a,7,8,10,10a-hexahydro-1-hydroxy-6,6-dimethyl-9H-dibenzo[b,d]pyran-9-one]	2.6 nM	0.1 nM			
CCCCCCC1(c2cc(O)c([C@@H]3CC(=O)[C@@H]4C[C@H]3C4(C)C)c(O)c2)CCCC1 [Compound 2a, (4R)-4-[4-(1′,1′-cyclopentylheptyl)-2,6-dihydroxyphenyl]-6,6-dimethyl-2-norpinanone]	0.4 nM	50.6 nM	187 to 188 °C		
C#CCCCCC(C)(C)c1cc(O)c2c(c1)OC(C)(C)[C@@H]1CC[C@H](O)C[C@@H]21 [Compound 6e, 6a,7,8,9,10,10a-Hexahydro-3-(1′,1′-dimethylhept-6′-ynyl)-6,6-dimethyl-6H-dibenzo[b,d]pyran-1,9α-diol]	12 nM			11.3 nM	
CC(C)(CCCCCCBr)c1cc(O)c2c(c1)OC(C)(C)[C@@H]1CC[C@@H](N=[N+]=[N-])C[C@@H]21 [Compound 7d, 1-Hydroxy-3-(7′-bromo-1′,1′-dimethylheptyl)-6,6-dimethyl-9β-azido-6a,7,8,8,10,10a-hexahydro-6H-dibenzo[b,d]pyran]	13.7 nM	1.6 nM			
CCCCC=CC1(c2cc(O)c([C@@H]3CC(=O)[C@@H]4C[C@H]3C4(C)C)c(O)c2)CCCC1 [Compound 2b, (4R)4-[4-(1′,1′-cyclopentylhept-2′-enyl)-2,6-dihydroxyphenyl]-6,6-dimethyl-2-norpinanone]	0.4 nM	74.5 nM	167 to 168 °C		
CCCCCCC1(c2cc(O)c3c(c2)OC(C)(C)[C@@H]2CCC(=O)C[C@@H]32)SCCS1 (single isomer, unassigned) [Compound 4c, (−)-trans-3-(2-hexyl-1,3-dithiolan-2-yl)-6,6a,7,8,10,10a-hexahydro-1-hydroxy-6,6-dimethyl-9H-dibenzo[b,d]pyran-9-one]	2.3 nM	11.7 nM	62 to 64 °C (dec.)		
CCCCCCC(C)(C)c1cc(O)c2c(c1)OC(C)(C)[C@@H]1CC[C@@H](N=[N+]=[N-])C[C@@H]21 [Compound 7g, 1-Hydroxy-3-(1′,1′-dimethylheptyl)-6,6-dimethyl-9β-azido-6a,7,8,8,10,10a-hexahydro-6H-dibenzo[b,d]pyran]	10.2 nM	5 nM			
CCCCCCC1(c2cc(O)c3c(c2)OC(C)(C)[C@@H]2CC[C@@H](O)C[C@@H]32)SCCS1 [Compound 5, 6a,7,8,9,10,10a-Hexahydro-3-(2-hexyl-1,3-dithiolan-2-yl)-6,6-dimethyl-6H-dibenzo[b,d]pyran-1,9β-diol]	13.9 nM				
CCCCC=CC1(c2cc(O)c3c(c2)OC(C)(C)[C@@H]2CCC(=O)C[C@@H]32)CCCC1 [Compound 4b, (−)-trans-3-(1′,1′-cyclopentylhept-2′-enyl)-6,6a,7,8,10,10a-hexahydro-1-hydroxy-6,6-dimethyl-9H-dibenzo[b,d]pyran-9-one]	0.2 nM	0.2 nM			
CC(C)(CCCCCCBr)c1cc(O)c([C@@H]2CC(=O)[C@@H]3C[C@H]2C3(C)C)c(O)c1 [Compound 2d, (4R)4-[4-(7′-bromo-1′,1′-dimethylheptyl)-2,6-dihydroxyphenyl]-6,6-dimethyl-2-norpinanone]	9.3 nM	10.6 nM			
CCCCCCC1(c2cc(O)c([C@@H]3CC(=O)C4CC3C4(C)C)c(O)c2)SCCS1 (stereo partly drawn) [Compound 2c, (4R)-4-[4-(2-hexyl-1,3-dithiolan-2-yl)-2,6-dihydroxyphenyl]-6,6-dimethyl-2-norpinanone]	10.9 nM		160 to 161 °C (dec.)		224 nM
C#CCCCCC(C)(C)c1cc(O)c2c(c1)OC(C)(C)[C@@H]1CCC(=O)C[C@@H]21 [Compound 4e, (−)-trans-3-(1′,1′-dimethylhept-6′-ynyl)-6,6a,7,8,10,10a-hexahydro-1-hydroxy-6,6-dimethyl-9H-dibenzo[b,d]pyran-9-one]	4.1 nM	10.7 nM			
C#CCCCCC(C)(C)c1cc(O)c([C@@H]2CC(=O)[C@@H]3C[C@H]2C3(C)C)c(O)c1 [Compound 2e, (4R)-4-[4-(1′,1′-dimethylhept-6′-ynyl)-2,6-dihydroxyphenyl]-6,6-dimethyl-2-norpinanone]	0.2 nM	30.8 nM			
CCCCCCC1(c2cc(O)c([C@@H]3CC(O)[C@@H]4C[C@H]3C4(C)C)c(O)c2)SCCS1 (stereo partly drawn) [Compound 3, (4R)4-[4-(2-hexyl-1,3-dithiolan-2-yl)-2,6-dihydroxyphenyl]-6,6-dimethyl-2β-norpinanol and (4R)-4-[4-(2-hexyl-1,3-dithiolan-2-yl)-2,6-dihydroxyphenyl]-6,6-dimethyl-2α-norpinanol]	76.8 nM				133 nM
CC(C)(CCCCCCI)c1cc(O)c2c(c1)OC(C)(C)[C@@H]1CC[C@@H](N=[N+]=[N-])C[C@@H]21 [Compound 8, 1-Hydroxy-3-(7′-iodo-1′,1′-dimethylheptyl)-6,6-dimethyl-9β-azido-6a,7,8,8,10,10a-hexahydro-6H-dibenzo[b,d]pyran]	0.9 nM	0.8 nM			
CC(C)(CCCCC=CI)c1cc(O)c2c(c1)OC(C)(C)[C@@H]1CC[C@@H](N=[N+]=[N-])C[C@@H]21 [Compound 9, 1-Hydroxy-3-(7′-iodo-1′,1′-dimethylhept-6′-enyl)-6,6-dimethyl-9β-azido-6a,7,8,8,10,10a-hexahydro-6H-dibenzo[b,d]pyran]	0.7 nM	0.7 nM			
CC(C)(CCCCCCBr)c1cc(O)c2c(c1)OC(C)(C)[C@@H]1CCC(=O)C[C@@H]21 (relative stereo) [Compound 4d, (−)-trans-3-(7′-bromo-1′,1′-dimethylheptyl)-6,6a,7,8,10,10a-hexahydro-1-hydroxy-6,6-dimethyl-9H-dibenzo[b,d]pyran-9-one]	11.8 nM	1 nM			

— patent US7285683B2, “Bicyclic and tricyclic cannabinoids” (University of Connecticut, priority 2001, dated 2007)
